Laboratory results published in US9914730B2, “Azaquinazoline inhibitors of Atypical protein Kinase C” (Ignyta, Inc., priority 2012, dated 2018).

Each compound was assayed against T1, full-length human PKCι (Homo sapiens, UniProt P41743) (assay: PKCι IC50 IMAP assay, full-length PKCι at 150 μM ATP). Details: read-out: IC50 in IMAP assay against full length PKCi at 150 μM ATP.
T1 construct: Recombinant, full-length human PKCι expressed in Sf21 insect cells is also commercially available; purchased; host or cells: Sf21 insect cells
T1 sequence (P41743 1-596): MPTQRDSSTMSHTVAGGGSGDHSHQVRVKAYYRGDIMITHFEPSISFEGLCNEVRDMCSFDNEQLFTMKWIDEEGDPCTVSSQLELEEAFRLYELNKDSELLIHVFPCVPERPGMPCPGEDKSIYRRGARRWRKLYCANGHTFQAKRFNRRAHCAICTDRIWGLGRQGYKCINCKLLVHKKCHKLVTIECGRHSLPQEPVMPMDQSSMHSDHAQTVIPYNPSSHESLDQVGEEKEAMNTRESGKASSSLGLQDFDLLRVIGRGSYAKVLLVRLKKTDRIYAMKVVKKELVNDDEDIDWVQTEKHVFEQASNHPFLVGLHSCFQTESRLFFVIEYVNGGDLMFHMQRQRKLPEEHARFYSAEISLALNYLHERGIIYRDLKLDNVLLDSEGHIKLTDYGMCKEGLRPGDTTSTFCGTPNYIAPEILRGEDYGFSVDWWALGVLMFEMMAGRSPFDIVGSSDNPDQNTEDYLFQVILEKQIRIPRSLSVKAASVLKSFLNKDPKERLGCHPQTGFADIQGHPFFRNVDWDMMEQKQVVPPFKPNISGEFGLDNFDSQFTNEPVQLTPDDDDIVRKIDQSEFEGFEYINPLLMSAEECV
Format: biochemical
How it was run: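 Recombinant full-length human PKCι (Sf21-expressed, typically 15 pM) phosphorylated 100 nM 5FAM-labelled PKCε pseudosubstrate-derived peptide with 150 μM ATP (5× KM^APP) in 18 mM tris-HCl pH7.5, 9 mM MgCl2, EGTA, DTT, 4% DMSO. After 60 min at room temperature, IMAP binding reagent was added for 2 h and fluorescence polarisation read.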

IC50, 100 to 1000 nM:
CN[C@H](CNc1nc(-c2ccncc2)nc2cnccc12)Cc1ccccc1 [Example 80, methyl[(2S)-1-phenyl-3-{[2-(pyridin-4-yl)pyrido[3,4-d]pyrimidin-4-yl]amino}propan-2-yl]amine]
COc1cncc2nc(-c3ccncc3)nc(N3CCN(C)[C@@H](Cc4ccccc4)C3)c12 [Example 81, (2S)-2-benzyl-4-[5-methoxy-2-(pyridin-4-yl)pyrido[3,4-d]pyrimidin-4-yl]-1-methylpiperazine; formic acid]
CS(=O)(=O)Nc1cccc(-c2nccc3c(NC[C@@H](N)Cc4ccccc4)nc(-c4ccncc4)nc23)c1 [Example 88, N-{3-[4-((S)-2-Amino-3-phenyl-propylamino)-2-pyridin-4-yl-pyrido[3,4-d]pyrimidin-8-yl]-phenyl}-methanesulfonamide]
N[C@H](CNc1nc(-c2ccncc2)nc2c(-c3ccccc3)nccc12)Cc1ccccc1 [Example 90, N-[(2S)-2-amino-3-phenylpropyl]-8-phenyl-2-(pyridin-4-yl)pyrido[3,4-d]-pyrimidin-4-amine]
N[C@H](CNc1nc(-c2ccncc2)nc2c(-c3ccc(O)cc3)nccc12)Cc1ccccc1 [Example 91, 4-(4-{[(2S)-2-amino-3-phenylpropyl]-amino}-2-(pyridin-4-yl)pyrido[3,4-d]-pyrimidin-8-yl)phenol]
COc1ccccc1-c1nccc2c(NC[C@@H](N)Cc3ccccc3)nc(-c3ccncc3)nc12 [Example 93, N-[(2S)-2-amino-3-phenylpropyl]-8-(2-methoxy-phenyl)-2-(pyridin-4-yl)-pyrido[3,4-d]-pyrimidin-4-amine]
COc1cccc(-c2nccc3c(NC[C@@H](N)Cc4ccccc4)nc(-c4ccncc4)nc23)c1 [Example 94, N-[(2S)-2-amino-3-phenylpropyl]-8-(3-methoxy-phenyl)-2-(pyridin-4-yl)-pyrido[3,4-d]-pyrimidin-4-amine]

IC50, 1000 to 10000 nM:
NC(=O)CN[C@H](CNc1nc(-c2ccncc2)nc2cnccc12)Cc1ccccc1 [Example 82, 2-{[(2S)-1-phenyl-3-{[2-(pyridin-4-yl)pyrido[3,4-d]pyrimidin-4-yl]amino}propan-2-yl]amino}acetamide]
COc1cncc2nc(-c3ccncc3)nc(N3CCN4C(=O)OC[C@H]4C3)c12 [Example 86, (3aR)-5-[5-methoxy-2-(pyridin-4-yl)pyrido[3,4-d]pyrimidin-4-yl]-hexahydro-1H-[1,3]oxazolo[3,4-a]piperazin-1-one]
N[C@H](CNc1nc(-c2ccncc2)nc2c(-c3cccc(O)c3)nccc12)Cc1ccccc1 [Example 92, 3-(4-{[(2S)-2-amino-3-phenylpropyl]-amino}-2-(pyridin-4-yl)-pyrido[3,4-d]-pyrimidin-8-yl)phenol]

IC50, < 100 nM:
N[C@H](CNc1nc(-c2ccncc2)nc2c(-c3ccn[nH]3)nccc12)Cc1ccccc1 [Example 89, N-[(2S)-2-amino-3-phenylpropyl]-8-(1H-pyrazol-5-yl)-2-(pyridin-4-yl)pyrido[3,4-d]-pyrimidin-4-amine]

IC50, 10000 to 40000 nM:
CS(=O)(=O)N[C@H](CNc1nc(-c2ccncc2)nc2cnccc12)Cc1ccccc1 [Example 83, N-(1-phenyl-3-{[2-(pyridin-4-yl)pyrido[3,4-d]pyrimidin-4-yl]amino}propan-2-yl)methanesulfonamide]
NC(=O)N[C@H](CNc1nc(-c2ccncc2)nc2cnccc12)Cc1ccccc1 [Example 84, (1-phenyl-3-{[2-(pyridin-4-yl)pyrido[3,4-d]pyrimidin-4-yl]amino}propan-2-yl)urea]
CCNC(=O)N[C@H](CNc1nc(-c2ccncc2)nc2cnccc12)Cc1ccccc1 [Example 85, 3-ethyl-1-(1-phenyl-3-{[2-(pyridin-4-yl)pyrido[3,4-d]pyrimidin-4-yl]amino}propan-2-yl)urea]
COc1cncc2nc(-c3ccncc3)nc(N3CCN(CC#N)CC3)c12 [Example 87, 2-{4-[5-methoxy-2-(pyridin-4-yl)pyrido[3,4-d]pyrimidin-4-yl]piperazin-1-yl}acetonitrile]
